Results taken from US6310243A, “Iodinated x-ray contrast media” (Nycomed Imaging AS, priority 1994, dated 2001).

Assays:
Assay type in all cases: physicochemical
[1] = Viscosity at 37° C.
[2] = Viscosity in aqueous solution at 20° C.
Experimental: Table 2 also gives calculated value for viscosity in mPas for concentration of 400 mg I/ml and 300 mg I/ml (at 20° C.).

[3] = Water solubility; conditions: noted in Table 2 in place of a concentration

**Q.** Which results are given for `O=C(NC(CO)C(O)CO)c1c(I)c(CO)c(I)c(NC(=O)C(O)C(O)CO)c1I` (stereo not shown) [Example 81, 5-[N'-(2,3,4-Trihydroxybutanoyl)-amino]-3-hydroxymethyl-N-(1,3,4-trihydroxybut-2-yl)-2,4,6-triiodobenzamide]?
**A.** Viscosity at 350 mgI/ml (CALCULATED) [1]: 6.1; Viscosity 37° C. ([1]; 376 mgI/ml): 8.9

**Q.** Which results are given for `O=C(Nc1c(I)c(CO)c(I)c(N(CC(O)CO)C(=O)C(O)CO)c1I)C(O)CO` (stereo not shown) [Example 15, N,N'-Bis(2,3-dihydroxypropionyl)-N-(2,3-dihydroxyoronyl)-3,5-diamino-2,4,6-triiodobenzylalcohol]?
**A.** Viscosity 20° C. ([2]; 348 mgI/ml): 7.8 mPas; Viscosity 20° C. ([2]; 446 mgI/ml): 22 mPas; Viscosity 20° C. ([2]; 537 mgI/ml): 75 mPas

**Q.** With `O=C(Nc1c(I)c(CO)c(I)c(NC(=O)C(O)C(O)CO)c1I)C(O)C(O)CO` (stereo not shown) [Example 79, N,N'-Bis-(2,3,4-trihydroxybutanoyl)-3,5-diamino-2,4,6-triiodobenzyl alcohol] as the molecule, how does the “Viscosity at 350 mgI/ml (CALCULATED)” value [1] read?
**A.** 5.9

**Q.** What about the “Viscosity 37° C.” value ([1]; 379 mgI/ml) of the same molecule?
**A.** 6.9

**Q.** With `O=C(NCC(O)CO)c1c(I)c(CO)c(I)c(NC(=O)C(O)C(O)CO)c1I` (stereo not shown) [Example 80, 5-[N'-(2,3,4-Trihydroxybutanoyl)amino]-3-hydroxymethyl-N-(2,3-dihydroxypropyl)-2,4,6-triiodobenzamide] as the molecule, how does the “Viscosity at 350 mgI/ml (CALCULATED)” value [1] read?
**A.** 5.2

**Q.** What about the “Viscosity 37° C.” value ([1]; 444 mgI/ml) of the same molecule?
**A.** 11

**Q.** For `OCc1cc(OCC(O)CO)c(I)c(OCC(O)CO)c1I` (stereo not shown) [Example 78, 3,5-Bis-(2,3-dihydroxypropyloxy)-2,4-diiodobenzyl alcohol], which solubility [3] is on record?
**A.** low

**Q.** Which “Viscosity 20° C.” value ([2]; 407 mgI/ml) does the source give for `CC(O)C(=O)Nc1c(I)c(CO)c(I)c(N(CC(O)CO)C(=O)C(C)O)c1I` (stereo not shown) [Example 11, N,N'-Bis(2-hydroxypropionyl)-N-(2,3-dihydroxypropyl)-3,5-diamino-2,4,6-triiodobenzylalcohol] here?
**A.** 16 mPas

**Q.** What does the source list for `CN(CC(O)CO)C(=O)c1c(I)c(CO)c(I)c(NC(=O)CO)c1I` (stereo not shown) [Example 44, 5-Hydroxyacetamido-3-hydroxymethyl-N-methyl-N-(2,3-dihydroxypropyl)-2,4,6-triiodobenzamide]?
**A.** Viscosity at 400 mgI/ml (CALCULATED) ([2]; 400 mgI/ml, calculated): 10.8 mPas; Viscosity 20° C. ([2]; 481 mgI/ml): 24 mPas
